In one assay the target is T1, purified human 15-lipoxygenase (Homo sapiens, UniProt P16050).
T1 sequence (P16050 1-662): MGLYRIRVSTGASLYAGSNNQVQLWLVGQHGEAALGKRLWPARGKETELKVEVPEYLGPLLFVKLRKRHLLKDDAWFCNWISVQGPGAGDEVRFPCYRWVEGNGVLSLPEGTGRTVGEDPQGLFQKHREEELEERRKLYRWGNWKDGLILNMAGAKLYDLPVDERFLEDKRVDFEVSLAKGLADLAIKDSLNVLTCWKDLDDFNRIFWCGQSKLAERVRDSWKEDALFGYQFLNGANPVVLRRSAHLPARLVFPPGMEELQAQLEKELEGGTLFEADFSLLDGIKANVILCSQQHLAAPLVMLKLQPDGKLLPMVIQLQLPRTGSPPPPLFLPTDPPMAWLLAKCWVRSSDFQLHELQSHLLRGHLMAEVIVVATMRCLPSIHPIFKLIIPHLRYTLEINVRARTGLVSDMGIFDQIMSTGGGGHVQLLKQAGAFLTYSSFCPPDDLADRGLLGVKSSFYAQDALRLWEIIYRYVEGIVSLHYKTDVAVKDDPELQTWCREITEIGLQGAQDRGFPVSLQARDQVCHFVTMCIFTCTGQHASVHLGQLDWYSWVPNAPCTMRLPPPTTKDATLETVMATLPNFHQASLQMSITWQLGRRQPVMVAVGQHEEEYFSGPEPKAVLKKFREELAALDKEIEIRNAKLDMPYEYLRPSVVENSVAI
Nature of the assay: 15-lipoxygenase inhibition assay (arachidonic acid oxidation, HPLC readout). The assay is classed as biochemical.
Settings: not given
The method, then: The assay employed takes advantage of the ability of lipoxygenases to oxidize polyunsaturated fatty acids, containing a 1,4-cis-pentadiene configuration, to their corresponding hydroperoxy or hydroxyl derivatives. In this particular assay, the lipoxygenase was a purified human 15-lipoxygenase and the fatty acid was arachidonic acid. The assay is performed at room temperature (20-22° C.) and the following are added to each well in a 96-well microtiter plate:
a) 35 μL phosphate buffered saline (PBS) (pH 7.4);
b) inhibitor (i.e. compound) or vehicle (0.5 μl DMSO);
c) 10 μL of a 10× concentrated solution of 15-lipoxygenase in PBS. The plates are incubated for 5 minutes at room temperature;
The plate is then incubated for 10 minutes at room temperature;
e) the enzymatic reaction is terminated by the addition of 100 μl methanol; and
f) the amount of 15-hydroperoxy-eicosatetraenoic acid or 15-hydroxy-eicosatetraenoic acid is measured by reverse phase HPLC.
As a reminder, the IC50 is the midpoint of a concentration-inhibition curve. `O=C(Nc1ccc2ccccc2n1)c1cc[nH]n1` [Example 2, Pyrazole-3-carboxylic acid quinolin-2-ylamide] returned an IC50 of 330 nM.

Still in this assay, the particulars now being: arachidonic acid substrate, room temperature, PBS pH 7.4; read-out: IC50.
Turning to `Cc1cc(C(=O)Nc2cccc3ncccc23)n[nH]1` [Example 7, 5-Methylpyrazole-3-carboxylic acid quinolin-5-ylamide], the half-inhibitory concentration (IC50) stood at 420 nM.

With `O=C(Nc1cccc2[nH]ccc12)c1cc(Cl)[nH]n1` [Example 48, 5-Chloropyrazole-3-carboxylic acid indol-4-ylamide], the half-maximal inhibitory concentration (IC50) was found to be 211 nM.

For the compound `CCOC(=O)c1c(NC(=O)c2cc[nH]n2)sc2c1CCCC2` [Example 56, 2-[(Pyrazole-3-carbonyl)amino]-4,5,6,7-tetrahydrobenzo[b]thiophene-3-carboxylic acid ethyl ester], the IC50 stood at 76 nM.

`O=C(Nc1cccc2cccnc12)c1cc[nH]n1` [Example 59, Pyrazole-3-carboxylic acid quinolin-8-ylamide]: the IC50 stood at 465 nM.

For `O=C(Nc1cccc2c1OC(F)(F)O2)c1cc[nH]n1` [Example 60, Pyrazole-3-carboxylic acid (2,3-(difluoromethylenedioxy)phenyl)amide], the IC50 was determined as 390 nM.

Regarding `O=C(Nc1ccnc2ccc(Br)cc12)c1cc[nH]n1` [Example 63, Pyrazole-3-carboxylic acid (6-bromoquinolin-4-yl)amide], the IC50 worked out at 682 nM.

The values are drawn from patent US20070225318A1, “Pyrazole Compounds Useful In The Treatment Of Inflammation” (BIOLIPOX AB, priority 2004, published 2007).
